From publication PMC9864790, “Cell-Penetrating Dabcyl-Containing Tetraarginines with Backbone Aromatics as Uptake Enhancers” (Pharmaceutics, 2022)
Read-outs that look alike come from different tables or passages of the source. Starred links: 1 amine or outer side, 2 acyl side, 3 side chain; linkers in the order of their positions; H or OH if unused. Non-standard residues stand in square brackets, D forms with d. Residues, ends and D or L forms follow the SMILES beside them. Groups on a side chain read outwards from the residue. *: point of attachment. Daunorubicin = COc1cccc2c1C(=O)c1c(O)c3c(c(O)c1C2=O)C[C@@](O)(C(C)=O)C[C@@H]3O[C@H]1C[C@H](N*)[C@H](O)[C@H](C)O1; Dabcyl = CN(C)c1ccc(N=Nc2ccc(C(=O)*)cc2)cc1; X1 = O=C(c1ccc2cc(N[*:1])ccc2c1)[*:2]; Suc = O=C(CCC(=O)[*:2])[*:1]; 4Amb = NCc1ccc(C(=O)O)cc1; 4Abz = Nc1ccc(C(=O)O)cc1

Experiments:
MDA-MB-231 cells [1] = assay: Cellular uptake of fluorescently labelled peptides by flow cytometry; format: cell-based, human; settings: 90 min, flow cytometry after trypsin treatment
Experimental: Cellular uptake of peptides was measured using flow cytometry on MCF-7 and MDA-MB-231 cells. Cells were treated with the fluorescently labelled peptides at 1, 5 and 10 µM concentrations for 90 min at 37 °C.
To study the cellular uptake of fluorophore-labelled peptides, 10^5 cells per well were plated on 24-well plates. Cells were incubated for 24 h at 37 °C, followed by treatment with the peptides at different concentrations, in serum-free medium for different time intervals. For negative control, cells were treated with serum-free medium. After the incubation, the peptide solutions were removed and 100 µL trypsin (0.25%) was added for 5–10 min to remove membrane bound peptides and detach the adherent cells from the plates. […] The fluorescence intensity of cells was quantified by flow cytometer (BD LSR II, BD Bioscience, San Jose, CA, USA). Data were analyzed with FACSDiVa 5.0 software.
Cells were treated with 1, 5 and 10 µM peptide solution for 90 min. The fluorescence intensity of the cells was determined by flow cytometry after trypsin treatment. […]
Cells were treated with 1, 5 and 10 µM peptide solutions for 90 min. The fluorescence intensity of the cells was determined by flow cytometry after trypsin treatment.

MDA-MB-231 cells [2] = assay: Effect of endocytosis inhibitors on cellular uptake (flow cytometry); format: cell-based, human; settings: then Cf-labelled peptide conjugate 5 µM, 90 min, 37 °C; for Effect of EIPA on uptake: EIPA 50 µM pretreatment 30 min; for Effect of CPZ on uptake: chlorpromazine (CPZ) 30 µM pretreatment 30 min; for Effect of COL on uptake: colchicine (COL) 20 µM pretreatment 30 min
Source text: Several endocytic routes can be used by CPPs for entry, which then determine their intracellular fate. […] The following inhibitors were applied: 5-(N-ethyl-N-isopropyl)amiloride (EIPA) as […] [39], chlorpromazine (CPZ) to inhibit clathrin-mediated endocytosis, methyl-beta-cyclodextrin (CyD) to deplete cholesterol from the lipid rafts, and thus to inhibit caveolae-mediated endocytosis. Finally, colchicine (COL) was used to ascertain if microtubules are involved in the uptake of the peptides as this agent inhibits microtubule formation.
The effect of inhibitors was studied in the same manner but with pretreatment by an inhibitor for 30 min, and subsequently treated with a peptide conjugate at 5 µM. The cells were then incubated for 90 min at 37 °C. Macropinocytosis was inhibited using 5-(N-Ethyl-N-isopropyl)amiloride (EIPA), clathrin-mediated endocytosis with chlorpromazine (CPZ), colchicine (Col) to assess the role of microtubules, and methyl-β-cyclodextrin (CyD) for the inhibition of caveolae/lipid-raft-mediated endocytosis.
Figure 8 Effect of endocytosis inhibitors on the cellular uptake of peptide conjugates. MDA-MB-231 cells were pretreated with inhibitors EIPA (50 µM), CPZ (30 µM), CyD (5 mM) and COL (20 µM) for 30 min, the cells were then treated with the peptide conjugates (5 µM) for 90 min. Significant difference from control was measured using student’s t test (* p <0.05, ** p < 0.01and **** p< 0.0001).

MDA-MB-231 cells [3] = assay: Effect of ATP depletion (NaN3 and DOG) on cellular uptake (flow cytometry); format: cell-based, human; settings: NaN3 10 mM and DOG 5 mM pretreatment 30 min, then peptide conjugate 5 µM, 90 min, 37 °C
Experimental: In order to inhibit all pathways of endocytosis, MDA-MB-231 cells were pretreated with sodium azide (NaN3) (10 mM) and 2-Deoxyglucose (DOG) (5 mM) for 30 min and the peptide was added to the wells. The cells were then incubated for 90 min at 37 °C.
Figure 9 Effect of endocytosis inhibitors on the cellular uptake of peptide conjugates. MDA-MB-231 cells were pretreated with NaN3 (10 mM) and DOG (5 mM) for 30 min, the cells were then treated with the peptide conjugates (5 µM) for 90 min. Significant difference from control was measured using Student’s t test (* p < 0.05 and ** p < 0.01).

MCF-7 [4] = settings: 3 h incubation, 3 days culture, MTT assay; cited from earlier work
Source text: Table 3 Cytostatic activity of peptide/drug conjugates on MCF-7 and MDA-MB-231. | column: IC50 ±SD (µM) ^a / MCF-7

MDA-MB-231 [5] = settings: 3 h incubation, 3 days culture, MTT assay; cited from earlier work
Source text: Table 3 Cytostatic activity of peptide/drug conjugates on MCF-7 and MDA-MB-231. | column: IC50 ±SD (µM) ^a / MDA-MB-231

MCF-7 [6] = assay: In vitro cytostatic activity, MTT assay; format: cell-based, human; settings: 3 h incubation with compound (0.4–100 µM), then 3 days culture in serum containing medium, three independent experiments with 4 parallel measurements
Experimental: (§1) Cells were grown to confluency and were plated into 96-well plates with initial cell number of 5 × 10^3 per well. The cells were incubated at 37 °C for 24 h. Then, cells were treated with the compounds at 0.4–100 µM concentration range for 3 h in 200 µL as the final volume. Control cells were treated with serum free medium at 37 °C for 3 h. After the incubation, the cells were washed with serum free medium twice. To analyze the in vitro cytostatic effect, cells were further cultured for 72 h in serum containing medium. Then, the MTT assay was performed to measure the IC50 values. […] The cells were incubated for 4 h. Then, the plates were centrifuged at 900× g for 5 min, and the supernatant was discarded. To dissolve the formed purple crystals, 100 µL of DMSO was added, and the absorbance was determined at λ = 540 nm and 620 nm using ELISA plate reader (iEMS Reader, Labsystems, Finland). To measure the percentage of cytostasis, the following equation was used for calculation: Cytostatic effect (%) = [1 − (ODtreated/ODcontrol)] × 100; where ODtreated and ODcontrol correspond to the optical densities of the treated and untreated cells, respectively. In each case, three independent experiments were carried out with 4 parallel measurements. […] The curves were defined using MicrocalTM Origin (version 9.2) software: cytostasis was plotted as a function of concentration, fitted to a sigmoidal curve, and based on this curve, the IC50 value was determined.

MDA-MB-231 [7] = assay: In vitro cytostatic activity, MTT assay; format: cell-based, human; settings: 3 h incubation with compound (0.4–100 µM), then 3 days culture in serum containing medium, three independent experiments with 4 parallel measurements
Experimental: as §1

Compound | IC50 (MCF-7 [4]) [µM] | IC50 (MDA-MB-231 [5]) [µM] | IC50 (MCF-7 [6]) [µM] | IC50 (MDA-MB-231 [7]) [µM] | other results
Dabcyl-PABA-RRRRK |  |  |  |  | Uptake relative to Arg8 (MDA-MB-231 cells [1]; CY5-labelled peptide, at all concentrations (1, 5 and 10 µM)): 3 to 4.5 folds; Relative uptake intensity (MDA-MB-231 cells [1]; Cf-labelled peptide, 10 µM, 37 °C, fluorescence intensity relative to Dabcyl-RRWRRK(Cf) at 10 µM (100%)): 340%; Effect of EIPA on uptake (MDA-MB-231 cells [2]): did not alter the internalization; Effect of CPZ on uptake (MDA-MB-231 cells [2]): did not cause any inhibition; Effect of COL on uptake (MDA-MB-231 cells [2]): did not cause any inhibition; Uptake after pretreatment with NaN3 and DOG (MDA-MB-231 cells [3]): significantly lower
Succinylated daunomycin [DauSuc] | 24.5 ± 7.1 | > 100 |  |  | 
Dabcyl-Trp-Arg-Arg-Arg-Arg-Lys(DauSuc) | 26.4 ± 4.2 | 18 ± 6.7 |  |  | 
COc1cccc2c1C(=O)c1c(O)c3c(c(O)c1C2=O)C[C@@](O)(C(C)=O)C[C@@H]3O[C@H]1C[C@H](NC(=O)CCC(=O)NCCCC[C@H](NC(=O)[C@H](CCCNC(=N)N)NC(=O)[C@H](CCCNC(=N)N)NC(=O)[C@H](CCCNC(=N)N)NC(=O)[C@H](CCCNC(=N)N)NC(=O)c2ccc3cc(NC(=O)c4ccc(N=Nc5ccc(N(C)C)cc5)cc4)ccc3c2)C(N)=O)[C@H](O)[C@H](C)O1 [Dabcyl-NAPH- Arg-Arg-Arg-Arg-Lys(DauSuc)] (Dabcyl-[X1]RRRRK([Suc-Daunorubicin])-NH2) |  |  | 15 ± 4.2 | 16.6 ± 0.5 | 
Dabcyl-Trp-Arg-Arg-Arg-Arg-Lys(MTX) | 36.9 ± 3 | 7.4 ± 2.2 |  |  | 
CN(Cc1cnc2nc(N)nc(N)c2n1)c1ccc(C(=O)N[C@@H](CCC(=O)O)C(=O)O)cc1 [MTX, methotrexate] | 0.8 ± 0.3 | > 100 |  |  | 
Dabcyl-AMBA-RRRRK |  |  |  |  | Effect of EIPA on uptake (MDA-MB-231 cells [2]): decreased the uptake; Effect of CPZ on uptake (MDA-MB-231 cells [2]): did not cause any inhibition; Effect of COL on uptake (MDA-MB-231 cells [2]): did not cause any inhibition; Uptake after pretreatment with NaN3 and DOG (MDA-MB-231 cells [3]): significantly lower
COc1cccc2c1C(=O)c1c(O)c3c(c(O)c1C2=O)C[C@@](O)(C(C)=O)C[C@@H]3O[C@H]1C[C@H](NC(=O)CCC(=O)NCCCC[C@H](NC(=O)[C@H](CCCNC(=N)N)NC(=O)[C@H](CCCNC(=N)N)NC(=O)[C@H](CCCNC(=N)N)NC(=O)[C@H](CCCNC(=N)N)NC(=O)c2ccc(CNC(=O)c3ccc(N=Nc4ccc(N(C)C)cc4)cc3)cc2)C(N)=O)[C@H](O)[C@H](C)O1 [Dabcyl-AMBA-Arg-Arg-Arg-Arg-Lys(DauSuc)] ({Dabcyl-4Amb}-RRRRK([Suc-Daunorubicin])-NH2) |  |  | 10.3 ± 5 | 10.1 ± 6 | 
COc1cccc2c1C(=O)c1c(O)c3c(c(O)c1C2=O)C[C@@](O)(C(C)=O)C[C@@H]3O[C@H]1C[C@H](NC(=O)CCC(=O)NCCCC[C@H](NC(=O)[C@H](CCCNC(=N)N)NC(=O)[C@H](CCCNC(=N)N)NC(=O)[C@H](CCCNC(=N)N)NC(=O)[C@H](CCCNC(=N)N)NC(=O)c2ccc(NC(=O)c3ccc(N=Nc4ccc(N(C)C)cc4)cc3)cc2)C(N)=O)[C@H](O)[C@H](C)O1 [Dabcyl-PABA- Arg-Arg-Arg-Arg-Lys(DauSuc)] ({Dabcyl-4Abz}-RRRRK([Suc-Daunorubicin])-NH2) |  |  | 17.7 ± 1.2 | 14.3 ± 1.1 | 
